Experiments:
[1] = Bioconversion to the parent steroid in vivo (blood levels of test compound and parent steroid); conditions: four female monkeys, dose equivalent to 7.5 mg/kg, injection, blood samples 0 to 8 hours; compared with methylprednisolone hemisuccinate
Method: Since the compounds of Formula I are prodrugs of the parent corticosteroids, their efficacy depends on bioconversion to liberate the free corticoid in vivo. […] Four female monkeys having synchronized menstrual cycles were given on separate days three days apart doses of the compound of Examples 1 and 2 and methylprednisolone hemisuccinate equivalent to 7.5 mg/kg. Prior to dosing the monkeys were fasted overnight and each was anesthetized during dosing. A few mls of 0.01μ ion strength pH 5 sodium acetate buffer was added to the test compound and 1N sodium hydroxide was added slowly with rapid stirring until all the solids went into solution just prior to injection. Blood samples were withdrawn at times 0, 1/12, 1/4, 1, 2, 4 and 8 hours from administration of test compound and levels of test compound and parent steroid were measured.

[2] = type: physicochemical; conditions: for t 90% (time for 10% hydrolysis): 25° C., dilute aqueous solution, at the pH of optimum stability (Example 1: pH 4.7; Example 2: pH 4.6)
Method: The most important reaction affecting shelf-life is hydrolysis of the ester or carbonate linkage. From the hydrolysis rate constants determined at 25° C. at various pH values for dilute aqueous solutions of the compounds of this invention, estimates of ^t 90% (time for 10% hydrolysis) may be calculated. Such values, calculated at the pH of optimum stability, for the compounds of Examples 1 and 2 are listed in Table I. The actual shelf-life of formulations of the above compounds would be expected to differ from the above estimates for several reasons. (1) The solubility of the parent corticosteroid formed on hydrolysis may be exceeded prior to 10% degradation of the ester. Micelle formation by the intact prodrugs results in solubilization of free corticosteroid thereby prolonging shelf-life. The degree of solubilization varies with the ester concentration, nature of the pro-moiety, and the structure of the corticosteroid. (2) Other degradation reactions besides hydrolysis may be expected to occur. These should in general be diminished due to micelle formation and can in some cases be controlled by the addition of chelating agents, antioxidants, etc. (3) Micelle formation in concentrated solutions also results in stabilization of the ester linkage toward base catalyzed hydrolysis. For example, the base catalyzed hydrolysis rate constant in a 0.267M solution of the compound of Example 1 is less than 20% the rate constant in a 5×10^-4 M solution.

physchem = type: physicochemical; conditions: water, pH 4.8, water
Excerpt: The compounds of this invention tend to be free flowing non-hygroscopic crystalline solids when in the acid form. While the aqueous solubility of these prodrugs is limited at very low pH values, these compounds become very soluble at pH values around 5 or higher. In this pH range the prodrugs self-associate to form micellar solutions.

SMILES	conversion to the parent steroid (methylprednisolone) in vivo [1]	pH of optimum stability [2]	t 90% (time for 10% hydrolysis) [2] [years]	solubility (physchem) [mg/mL]	base catalyzed hydrolysis rate constant in a 0.267M solution relative to the rate constant in a 5×10^-4 M solution ([2]; 0.267M vs 5×10^-4 M solution)
C[C@H]1C[C@@H]2[C@H]([C@@H](O)C[C@@]3(C)[C@H]2CC[C@]3(O)C(=O)COC(=O)CCCCC[S+]([O-])CC(=O)O)[C@@]2(C)C=CC(=O)C=C12 (some centres unmarked) [Example 2, methylprednisolone-21-[6'-(carboxymethylsulfinyl)hexanoate]]	to at least the same extent as was methylprednisolone hemisuccinate	4.6	0.93		
C[C@H]1C[C@@H]2[C@H]([C@@H](O)C[C@@]3(C)[C@H]2CC[C@]3(O)C(=O)COC(=O)CCCCCS(=O)(=O)CC(=O)O)[C@@]2(C)C=CC(=O)C=C12 [Example 1, methylprednisolone, 21-[6'-(carboxymethylsulfonyl)hexanoate]]	to at least the same extent as was methylprednisolone hemisuccinate	4.7	2.0	> 160	less than 20%

Source: patent publication US4588718A, “Carboxy containing ester prodrugs of corticosteroids” (The Upjohn Company, priority 1984, dated 1986)
